The assay has as its target Rv1466 (Mycobacterium tuberculosis, UniProt O53157). In words: biochemical. Type of assay: binding.

Chain of Rv1466 (O53157 entry or part of it): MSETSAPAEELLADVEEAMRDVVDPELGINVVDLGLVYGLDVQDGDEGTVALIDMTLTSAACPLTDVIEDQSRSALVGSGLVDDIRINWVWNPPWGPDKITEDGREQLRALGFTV

As a reminder, the Kd is the free concentration of one partner at which half of the binding sites on the other are occupied at equilibrium, for simple one-to-one binding. Read a high Kd as weaker binding. Molecule `O=C1C=C[C@@H]2O[C@H](c3ccccc3)[C@@H](O)[C@@H]2O1` [altholactone] returned a Kd of 42 ± 6.1 µM.

The values above are taken from article PMC7288112 (Molecules, 2020).
